Measurements: publication PMC6587462 (Journal of Clinical Pharmacology, 2018)
“Also recorded” adds a separate entry of the source. Like-named read-outs stand apart in the source and are kept apart here.

Tests used:
5‐HT3 receptor = molecular target: T1, 5‐HT3 receptor (Homo sapiens, UniProt P46098); details: Helsinn, data on file
T1 sequence (P46098 24-478): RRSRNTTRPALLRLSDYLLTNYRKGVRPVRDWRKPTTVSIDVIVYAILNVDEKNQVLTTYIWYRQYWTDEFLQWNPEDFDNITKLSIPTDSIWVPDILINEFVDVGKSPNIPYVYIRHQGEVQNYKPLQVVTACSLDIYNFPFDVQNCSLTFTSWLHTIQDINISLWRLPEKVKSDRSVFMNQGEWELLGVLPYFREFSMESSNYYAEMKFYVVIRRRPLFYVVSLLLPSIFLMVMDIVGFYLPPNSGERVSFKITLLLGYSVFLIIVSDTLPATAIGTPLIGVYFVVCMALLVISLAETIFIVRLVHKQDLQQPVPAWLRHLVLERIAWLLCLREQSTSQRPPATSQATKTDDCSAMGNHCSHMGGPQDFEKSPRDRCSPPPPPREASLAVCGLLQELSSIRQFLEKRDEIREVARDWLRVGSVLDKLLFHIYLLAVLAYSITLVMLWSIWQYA

[1] = after both IV and oral administration; cited from earlier work
[2] = cited from earlier work
[3] = cited from earlier work; remark: listed apart in the source
[4] = calculated logP; cited from earlier work
[5] = cited from earlier work; for AUCinf / CL/F / Cmax / Tmax / Vz/F / t1/2: Study 8, healthy volunteers (22), NEPA FDC, mean (CV%)
clinical [6] = details: human, in vivo
[7] = Absolute / oral bioavailability; assay type: in vivo; details: human, plasma, po
[8] = Apical-to-basolateral permeability in MDCK II monolayer; assay type: in vitro ADME, canine; details: dog
clinical [9] = details: human, in vivo, po
[10] = Biopharmaceutics Classification System class and solubility in water; assay type: physicochemical
[11] = palonosetron; cited from earlier work
[12] = cited from earlier work; remark: listed apart in the source
[13] = Oral NEPA PK in cancer patients, summary across studies; assay type: in vivo; details: human, plasma
[14] = Study 12 PK/safety and DDI study in cancer patients; assay type: in vivo; details: human, plasma, oral
CYP450 isoforms = details: palonosetron; cited from earlier work
plasma proteins = assay: Binding to plasma proteins; assay type: in vitro ADME
[15] = Binding to plasma proteins; assay type: in vitro ADME; details: human, plasma
[16] = Study 5 bioequivalence study, PK after single oral NEPA; assay type: in vivo, human
[17] = molecular target: P‐glycoprotein (P‐gp) efflux transporter (Homo sapiens, UniProt P08183); details: in vitro, cited from earlier work
NK1 receptor = NK1 receptor (Homo sapiens, UniProt P25103); details: NG108-15 cells; netupitant and palonosetron combined; cited from earlier work
[18] = parameters: species or system human; details: estimated from t1/2
[19] = Study 11 population PK, patients (117), NEPA FDC, cited from earlier work
[20] = Study 4 pilot bioequivalence study, PK after single oral NEPA; assay type: in vivo; details: human, plasma
[21] = Study 9 replicate crossover bioequivalence study; assay type: in vivo, human
[22] = Study 11 population PK/pharmacodynamic study in cancer patients; assay type: in vivo, human; details: population PK modeling in patients
[23] = absorption, binding, metabolic, or excretory level; cited from earlier work
NG108‐15 cells = details: netupitant and palonosetron combined; cited from earlier work

P‐glycoprotein (P‐gp) efflux transporter, sequence (P08183 whole entry): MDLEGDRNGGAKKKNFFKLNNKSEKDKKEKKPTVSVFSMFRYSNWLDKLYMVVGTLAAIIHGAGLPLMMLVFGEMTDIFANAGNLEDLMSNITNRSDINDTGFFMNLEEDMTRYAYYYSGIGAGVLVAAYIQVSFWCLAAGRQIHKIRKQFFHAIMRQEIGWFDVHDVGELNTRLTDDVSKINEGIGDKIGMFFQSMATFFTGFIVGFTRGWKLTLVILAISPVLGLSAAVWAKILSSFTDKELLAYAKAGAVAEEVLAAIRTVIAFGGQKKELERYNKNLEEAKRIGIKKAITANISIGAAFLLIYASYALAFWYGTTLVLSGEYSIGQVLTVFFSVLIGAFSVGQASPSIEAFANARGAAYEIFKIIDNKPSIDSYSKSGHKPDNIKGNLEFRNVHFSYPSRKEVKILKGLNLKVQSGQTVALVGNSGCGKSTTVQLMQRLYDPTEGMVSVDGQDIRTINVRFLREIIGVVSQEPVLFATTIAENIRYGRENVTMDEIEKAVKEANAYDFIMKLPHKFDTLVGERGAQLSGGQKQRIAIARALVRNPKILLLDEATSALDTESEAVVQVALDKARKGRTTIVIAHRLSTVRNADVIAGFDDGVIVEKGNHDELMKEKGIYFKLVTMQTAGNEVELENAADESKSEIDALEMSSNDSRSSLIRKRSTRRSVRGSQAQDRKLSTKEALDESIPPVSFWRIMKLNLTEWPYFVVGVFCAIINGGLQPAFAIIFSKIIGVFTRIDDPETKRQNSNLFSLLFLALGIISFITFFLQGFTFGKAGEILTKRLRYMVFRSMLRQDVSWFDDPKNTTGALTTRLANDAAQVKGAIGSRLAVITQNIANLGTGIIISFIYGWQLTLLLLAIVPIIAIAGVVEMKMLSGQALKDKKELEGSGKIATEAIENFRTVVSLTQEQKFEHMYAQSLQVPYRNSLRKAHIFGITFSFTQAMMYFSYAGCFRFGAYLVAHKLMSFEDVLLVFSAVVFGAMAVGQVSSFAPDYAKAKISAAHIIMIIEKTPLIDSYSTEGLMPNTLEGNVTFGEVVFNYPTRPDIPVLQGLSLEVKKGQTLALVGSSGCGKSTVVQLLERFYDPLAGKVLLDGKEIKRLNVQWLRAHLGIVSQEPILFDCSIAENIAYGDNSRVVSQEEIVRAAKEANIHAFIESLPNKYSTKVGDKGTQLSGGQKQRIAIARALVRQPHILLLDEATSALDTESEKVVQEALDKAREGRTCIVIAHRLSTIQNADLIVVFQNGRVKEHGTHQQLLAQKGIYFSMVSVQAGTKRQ
NK1 receptor, sequence (P25103 whole entry, species assumed): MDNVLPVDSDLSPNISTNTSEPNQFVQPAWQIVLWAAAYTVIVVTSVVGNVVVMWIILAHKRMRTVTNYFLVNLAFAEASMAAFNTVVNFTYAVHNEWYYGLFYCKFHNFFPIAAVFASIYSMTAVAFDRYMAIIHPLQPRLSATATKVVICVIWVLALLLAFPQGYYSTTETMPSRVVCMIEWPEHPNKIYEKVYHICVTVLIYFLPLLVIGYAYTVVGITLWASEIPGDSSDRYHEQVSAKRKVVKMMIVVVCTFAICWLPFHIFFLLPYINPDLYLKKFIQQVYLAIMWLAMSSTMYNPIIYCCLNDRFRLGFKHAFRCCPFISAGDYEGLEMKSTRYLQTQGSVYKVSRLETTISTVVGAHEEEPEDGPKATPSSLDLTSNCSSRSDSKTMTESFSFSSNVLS

Compound: O=C1c2cccc3c2[C@H](CC[C@@H]3O)CN1[C@@H]1CN2CCC1CC2 [6‐S‐hydroxy‐palonosetron]
- 5-HT3 receptor antagonist activity relative to palonosetron (5‐HT3 receptor): < 1%

Compound: O=C1c2cccc3c2[C@H](CCC3)CN1[C@@H]1C[N+]2([O-])CCC1CC2 [M9, N‐oxide‐palonosetron]
- 5-HT3 receptor antagonist activity relative to palonosetron (5‐HT3 receptor): < 1%
- fraction of administered palonosetron dose found in urine [1]: approximately 13%

Compound: C[C@@H](O[C@H]1OCCN(Cc2nc(O)n(P(=O)(O)O)n2)[C@H]1c1ccc(F)cc1)c1cc(C(F)(F)F)cc(C(F)(F)F)c1 [fosaprepitant]
- adverse reactions on intravenous administration [2]: injection‐site reactions

Compound: O=C1c2cccc3c2[C@H](CCC3)CN1[C@@H]1CN2CCC1CC2 [palonosetron]
- CL/F (Healthy volunteers, Min-Max of study means, single oral NEPA): 9.6 to 17.9 L/h
- plasma concentration as fraction of mean Cmax (at 3 hours after oral NEPA): approximately 80%
- t1/2 ([3]; cancer patients, intravenous single dose): 49.8 h
- t1/2 ([3]; healthy subjects, intravenous single dose): 37.4 h
- octanol-water partition coefficient (logP) [4]: 2.72
- AUCinf ([5]; fasted): 33.645 (26.7) ng ⋅ h/mL
- CL/F ([5]; fasted): 17.9 (34.1) L/h
- Cmax ([5]; fasted): 0.786 (28.4) ng/mL
- Tmax ([5]; fasted): 4.34 (19.6) h
- Vz/F ([5]; fasted): 905 (20.7) L
- t1/2 ([5]; fasted): 36.9 (23.6) h
- AUCinf ([5]; fed): 33.199 (20.9) ng ⋅ h/mL
- CL/F ([5]; fed): 17.8 (28.0) L/h
- Cmax ([5]; fed): 0.768 (20.7) ng/mL
- Tmax ([5]; fed): 4.96 (24.3) h
- Vz/F ([5]; fed): 962 (24.5) L
- t1/2 ([5]; fed): 38.9 (29.1) h
- AUCinf and Cmax under fed (high-fat breakfast) vs fasting conditions ([5]; open, randomized, 2-way crossover study in healthy volunteers): similar
- CL renal (clinical [6]): 89.8 mL/min
- bioavailability [7]: ~100%
- Papp A→B at 0.5 μM [8]: 16 ×10⁻⁶ cm/s
- Papp A→B at 50 μM [8]: 65 ×10⁻⁶ cm/s
- AUC(0-inf) (clinical [9]): 33.2 to 56.7 ng·h/mL
- Cmax (clinical [9]): 0.768 to 1.53 ng/mL
- Tmax (clinical [9]): 3.76 to 4.96 h
- Vd/F (clinical [9]): 575 to 962 L
- half-life (clinical [9]): 36.9 to 48.3 h
- Biopharmaceutics Classification System class [10]: 1
- solubility in water [11]: freely soluble
- effect of coadministration of metoclopramide or aprepitant on pharmacokinetics [12]: did not alter
- AUC(0-inf) [13]: 48.1 to 85.6 ng·h/mL
- Cmax [13]: 0.85 to 1.38 ng/mL
- Tmax [13]: 3.01 to 5.33 h
- Vd/F [13]: 483 to 679 L
- Vd/F [14]: 633 to 679 L
- CYP isoforms mediating metabolism (CYP450 isoforms): primarily metabolized by CYP2D6 and to a lesser extent by CYP3A4 and CYP1A2
- binding to plasma proteins (plasma proteins): 62%
- fraction unbound [15]: 0.38
- CL/F ([16]; Study 5, healthy volunteers (47), single oral NEPA FDC, mean (CV%)): 9.6 (28.3) L/h
- AUC(0-inf) ([16]; human, plasma, po): 56.7 ng·h/mL
- Cmax ([16]; human, plasma, po): 1.53 ng/mL
- Tmax ([16]; human, plasma, po): 4.68 h
- Vd/F ([16]; human, plasma, po): 586 L
- half-life ([16]; human, plasma, po): 44.2 h
- substrate of P-gp (MDR1/P-gp) efflux transporter [17]: P‐gp substrate
- inhibitor of P-gp efflux transporter ([17]; parent drugs): not an inhibitor; also recorded: not a P‐gp inhibitor
- combined effect on triggering NK1 receptor internalization (NK1 receptor): additive effects
- fraction from previous NEPA administration eliminated at next dose ([18]; chemotherapy every 2 weeks): more than 99%
- fraction from previous NEPA administration eliminated at next dose ([18]; chemotherapy every 3 weeks): 100%
- fraction of administered palonosetron dose found in urine [1]: approximately 40%
- AUCinf ([19]; mean (CV%)): 68.611 (33.4) ng ⋅ h/mL
- Cmax ([19]; mean (CV%)): 1.378 (28.3) ng/mL
- Tmax ([19]; mean (CV%)): 3.01 (66.4) h
- CL/F ([19]; value (%RSE)): 7.6 (%RSE = 3.64) L/h
- Tmax [20]: 4.19 h
- Vd/F [20]: 658 L
- half-life [20]: 42.1 h
- CL/F ([21]; Study 9, healthy volunteers (82), NEPA FDC commercial product, mean (CV%)): 11.1 (27.6) L/h
- AUC(0-inf) ([21]; human, plasma, oral): 48.2 ng·h/mL
- Cmax ([21]; human, plasma, oral): 1.27 ng/mL
- Tmax ([21]; human, plasma, oral): 3.76 h
- Vd/F ([21]; human, plasma, oral): 575 L
- half-life ([21]; human, plasma, oral): 37.2 h
- absorption lag time [22]: 0.79 h
- absorption rate constant [22]: 2.66 h⁻¹
- PK interaction between netupitant and palonosetron [23]: no relevant PK interactions
- combined effect on inhibition of substance P-mediated response (NG108‐15 cells): synergistic effects

Compound: C[C@@H](OC[C@@]1(c2ccccc2)CC[C@]2(CCC(=O)N2)CN1)c1cc(C(F)(F)F)cc(C(F)(F)F)c1 [rolapitant]
- t1/2 [3]: approximately 180 hours
- adverse reactions on intravenous administration [2]: injection‐site reactions
